Literature values in patent US11872245B2, “Antiseptic polymer and synthesis thereof” (TRIMPH IP PTY LIMITED, priority 2015, dated 2024).

What was measured:
V3 = V3 (Homo sapiens, UniProt P05106+P06756)
IIb3 = IIb3 (Homo sapiens, UniProt P05106+P08514)
IIb3, sequence (P08514 32-1039): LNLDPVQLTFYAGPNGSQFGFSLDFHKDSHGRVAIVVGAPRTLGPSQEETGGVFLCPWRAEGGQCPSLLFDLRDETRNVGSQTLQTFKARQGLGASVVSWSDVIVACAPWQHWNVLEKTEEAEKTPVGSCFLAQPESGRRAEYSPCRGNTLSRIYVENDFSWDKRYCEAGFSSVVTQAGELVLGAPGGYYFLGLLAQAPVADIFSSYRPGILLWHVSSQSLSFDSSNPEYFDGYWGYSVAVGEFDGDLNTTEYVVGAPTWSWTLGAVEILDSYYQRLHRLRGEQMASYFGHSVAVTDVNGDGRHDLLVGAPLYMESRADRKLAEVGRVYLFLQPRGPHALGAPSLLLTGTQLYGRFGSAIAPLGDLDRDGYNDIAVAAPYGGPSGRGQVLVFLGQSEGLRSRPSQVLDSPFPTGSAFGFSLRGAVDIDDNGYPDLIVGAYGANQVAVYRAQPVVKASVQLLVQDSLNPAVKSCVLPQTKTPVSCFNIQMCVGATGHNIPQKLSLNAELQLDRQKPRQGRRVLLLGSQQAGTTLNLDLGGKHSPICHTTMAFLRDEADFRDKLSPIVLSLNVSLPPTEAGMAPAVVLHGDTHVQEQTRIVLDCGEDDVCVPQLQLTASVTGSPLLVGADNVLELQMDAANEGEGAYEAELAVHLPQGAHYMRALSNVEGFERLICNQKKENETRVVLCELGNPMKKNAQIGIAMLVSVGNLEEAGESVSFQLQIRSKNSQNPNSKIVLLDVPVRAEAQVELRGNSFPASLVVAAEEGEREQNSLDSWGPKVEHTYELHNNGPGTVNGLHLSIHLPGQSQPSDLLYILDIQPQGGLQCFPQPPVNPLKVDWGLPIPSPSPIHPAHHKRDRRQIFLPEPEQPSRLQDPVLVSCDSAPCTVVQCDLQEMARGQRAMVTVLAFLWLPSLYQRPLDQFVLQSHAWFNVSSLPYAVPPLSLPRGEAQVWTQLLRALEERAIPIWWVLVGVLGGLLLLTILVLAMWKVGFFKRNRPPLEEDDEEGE
IIb3, sequence (P05106 27-788): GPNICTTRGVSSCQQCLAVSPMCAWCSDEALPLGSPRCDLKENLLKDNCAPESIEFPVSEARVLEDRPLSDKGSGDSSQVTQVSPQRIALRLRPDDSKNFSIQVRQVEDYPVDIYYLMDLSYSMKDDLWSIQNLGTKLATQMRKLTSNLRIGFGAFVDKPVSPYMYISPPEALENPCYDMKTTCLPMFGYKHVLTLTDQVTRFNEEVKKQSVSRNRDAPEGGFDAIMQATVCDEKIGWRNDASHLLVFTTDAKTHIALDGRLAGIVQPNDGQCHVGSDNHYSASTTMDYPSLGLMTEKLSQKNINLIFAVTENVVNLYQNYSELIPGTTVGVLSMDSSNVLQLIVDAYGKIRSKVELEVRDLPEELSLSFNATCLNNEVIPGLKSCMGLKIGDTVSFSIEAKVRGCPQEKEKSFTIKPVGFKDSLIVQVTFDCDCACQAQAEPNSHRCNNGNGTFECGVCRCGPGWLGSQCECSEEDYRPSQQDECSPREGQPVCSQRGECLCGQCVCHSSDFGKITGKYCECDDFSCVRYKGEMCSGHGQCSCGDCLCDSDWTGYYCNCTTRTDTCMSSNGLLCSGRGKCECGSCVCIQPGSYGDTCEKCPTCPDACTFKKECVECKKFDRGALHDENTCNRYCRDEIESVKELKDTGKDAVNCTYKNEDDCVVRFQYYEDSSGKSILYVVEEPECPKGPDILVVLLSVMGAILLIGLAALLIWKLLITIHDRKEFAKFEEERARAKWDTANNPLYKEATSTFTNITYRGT

V3, sequence (P06756 31-1048): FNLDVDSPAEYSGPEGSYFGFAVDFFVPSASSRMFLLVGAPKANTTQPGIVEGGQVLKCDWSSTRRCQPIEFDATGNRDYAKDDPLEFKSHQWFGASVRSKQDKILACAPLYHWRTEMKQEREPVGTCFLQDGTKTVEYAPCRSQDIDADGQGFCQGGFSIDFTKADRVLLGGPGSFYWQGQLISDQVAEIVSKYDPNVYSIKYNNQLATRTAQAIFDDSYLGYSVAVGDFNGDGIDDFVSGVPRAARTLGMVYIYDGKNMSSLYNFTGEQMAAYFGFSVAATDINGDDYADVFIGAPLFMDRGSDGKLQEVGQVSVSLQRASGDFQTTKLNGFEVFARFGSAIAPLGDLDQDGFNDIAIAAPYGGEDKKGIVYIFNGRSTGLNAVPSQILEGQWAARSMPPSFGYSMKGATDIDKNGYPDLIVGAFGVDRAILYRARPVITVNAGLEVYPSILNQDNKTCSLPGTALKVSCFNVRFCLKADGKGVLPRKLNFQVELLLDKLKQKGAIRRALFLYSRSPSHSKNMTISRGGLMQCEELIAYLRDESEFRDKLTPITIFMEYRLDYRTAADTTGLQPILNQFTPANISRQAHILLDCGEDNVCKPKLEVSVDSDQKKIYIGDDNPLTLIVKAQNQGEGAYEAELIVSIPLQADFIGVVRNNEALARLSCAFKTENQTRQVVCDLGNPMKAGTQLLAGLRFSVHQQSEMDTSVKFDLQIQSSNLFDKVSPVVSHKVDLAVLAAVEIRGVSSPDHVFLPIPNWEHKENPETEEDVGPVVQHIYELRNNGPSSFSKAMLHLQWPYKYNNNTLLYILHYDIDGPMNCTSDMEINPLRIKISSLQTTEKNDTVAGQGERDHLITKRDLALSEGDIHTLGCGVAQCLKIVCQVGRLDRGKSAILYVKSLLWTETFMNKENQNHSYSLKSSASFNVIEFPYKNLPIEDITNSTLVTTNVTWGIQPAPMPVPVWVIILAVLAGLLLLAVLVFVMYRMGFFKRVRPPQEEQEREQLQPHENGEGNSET
V3, sequence (P05106 27-788): as the sequence (P05106 27-788) above

affinity (V3): intermediate affinity | affinity (IIb3): intermediate affinity
Substance: {GLY}{ARG}{GLY}{ASP}{SER} [GRGDS]
